Key:
sugar beet = assay: Test B pre/postemergence sugar beet; format: in vivo, Beta vulgaris
In short: (§1)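 Response is a visual 0-to-10 score relative to untreated plants, where 0 means no effect and 10 means complete control, taken twelve to sixteen days after application. Treatments went onto soil at planting and onto foliage of 1- to 4-leaf plants, using a surfactant-containing non-phytotoxic solvent.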

cocklebur = assay: Test B pre/postemergence cocklebur; format: in vivo, Xanthium strumarium
In short: as §1

wild oat = assay: Test B pre/postemergence wild oat; format: in vivo, Avena fatua
In short: as §1

duck salad = assay: Test B flood test duck salad; format: in vivo, Heteranthera limosa
In short: (§2)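 Plants were grown to the 2-leaf stage before treatment with test chemical, then held in a greenhouse for twelve to sixteen days. Injury was visually rated against untreated controls on a 0–10 scale, where 0 is no effect and 10 is complete control.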

morningglory = assay: Test B pre/postemergence morningglory; format: in vivo, Ipomoea hederacea
In short: as §1

blackgrass = assay: Test B pre/postemergence blackgrass; format: in vivo, Alopecurus myosuroides
In short: as §1

corn = assay: Test B pre/postemergence corn; format: in vivo, Zea mays
In short: as §1

wheat = assay: Test B pre/postemergence wheat; format: in vivo, Triticum aestivum
In short: as §1

purple nutsedge = assay: Test B pre/postemergence purple nutsedge; format: in vivo, Cyperus rotundus
In short: as §1

giant foxtail = assay: Test B pre/postemergence giant foxtail; format: in vivo, Setaria faberii
In short: as §1

velvetleaf = assay: Test B pre/postemergence velvetleaf; format: in vivo, Abutilon theophrasti
In short: as §1

crabgrass = assay: Test B pre/postemergence crabgrass; format: in vivo, Digitaria sanguinalis
In short: as §1

soybean = assay: Test B pre/postemergence soybean; format: in vivo, Glycine max
In short: as §1

surinam grass = assay: Test B pre/postemergence surinam grass; format: in vivo, Brachiaria decumbens
In short: as §1

smallflower flatsedge = assay: Test B flood test smallflower flatsedge; format: in vivo, Cyperus difformis
In short: as §2

rape = assay: Test B pre/postemergence rape; format: in vivo, Brassica napus
In short: as §1

[1] = Postemergence, Rate 125 g/ha, scale of 0 to 10 where 0 is no effect and 10 is complete control
[2] = Preemergence, Rate 62 g/ha, scale 0 to 10 (0 no effect, 10 complete control)
[3] = Preemergence, Rate 125 g/ha, 0 is no effect, 10 is complete control
[4] = Preemergence, Rate 250 g/ha, scale 0 to 10, 0 is no effect, 10 is complete control
[5] = Preemergence, Rate 500 g/ha, scale 0 to 10 (0 no effect, 10 complete control)
[6] = Rate 62 g/ha, Postemergence, scale of 0 to 10 where 0 is no effect and 10 is complete control
[7] = Rate 250 g/ha, Postemergence, scale 0 to 10, 0 is no effect, 10 is complete control
[8] = Rate 500 g/ha, Postemergence, scale 0 to 10
[9] = Postemergence (flood test species), Rate 125 g/ha, scale of 0 to 10 where 0 is no effect and 10 is complete control
[10] = Rate 62 g/ha, Postemergence section, flood test species, scale of 0 to 10 where 0 is no effect and 10 is complete control
[11] = Rate 250 g/ha, Postemergence (flood test), scale 0 to 10, 0 is no effect, 10 is complete control
[12] = Rate 500 g/ha, listed under Postemergence (flood test species), scale 0 to 10

COc1ccccc1Cn1c(=O)on(C(=O)N(c2ccc(F)cc2)C(C)C)c1=O [Compound 143]
6: Sugarbeets plant response rating (sugar beet; [1]) | Plant response rating, Sugarbeets (sugar beet; [7]) | Sugarbeets plant response rating (sugar beet; [8]) | Morningglory plant response rating (morningglory; [1]) | Blackgrass plant response rating (blackgrass; [5]) | Rape plant response rating (rape; [5])
3: Sugarbeets plant response rating (sugar beet; [4]) | Cocklebur plant response rating (cocklebur; [1]) | Plant response rating, Cocklebur (cocklebur; [7]) | Morningglory plant response rating (morningglory; [6]) | Blackgrass plant response rating (blackgrass; [1]) | Blackgrass plant response rating (blackgrass; [6]) | Giant foxtail plant response rating (giant foxtail; [2]) | Crabgrass plant response rating (crabgrass; [2]) | Soybean plant response rating (soybean; [1]) | Soybean plant response rating (soybean; [6]) | Rape plant response rating (0 to 10 scale) (rape; [3]) | Rape plant response rating (rape; [8])
4: Cocklebur plant response rating (cocklebur; [8]) | Blackgrass plant response rating (blackgrass; [2]) | Plant response rating, Soybean (soybean; [7]) | Rape plant response rating (rape; [4])
2: Giant foxtail plant response rating (giant foxtail; [1]) | Velvetleaf plant response rating (velvetleaf; [1]) | Velvetleaf plant response rating (velvetleaf; [6]) | Plant response rating, Velvetleaf (velvetleaf; [7]) | Velvetleaf plant response rating (velvetleaf; [8]) | B. signalgrass plant response rating (surinam grass; [4]) | Plant response rating, S. Flatsedge (smallflower flatsedge; [11])
8: Plant response rating, Morningglory (morningglory; [7]) | Morningglory plant response rating (morningglory; [8]) | Blackgrass plant response rating (blackgrass; [8]) | Crabgrass plant response rating (crabgrass; [1]) | Crabgrass plant response rating (crabgrass; [4]) | Plant response rating, Crabgrass (crabgrass; [7]) | S. Flatsedge plant response rating (smallflower flatsedge; [12])
7: Giant foxtail plant response rating (giant foxtail; [8]) | Crabgrass plant response rating (0 to 10 scale) (crabgrass; [3])
10: Giant foxtail plant response rating (giant foxtail; [5]) | Crabgrass plant response rating (crabgrass; [5])
1: Sugarbeets plant response rating (0 to 10 scale) (sugar beet; [3]) | Sugarbeets plant response rating (sugar beet; [6]) | Cocklebur plant response rating (cocklebur; [6]) | Crabgrass plant response rating (crabgrass; [6]) | Soybean plant response rating (soybean; [5])
9: Sugarbeets plant response rating (sugar beet; [5]) | Giant foxtail plant response rating (0 to 10 scale) (giant foxtail; [3]) | Giant foxtail plant response rating (giant foxtail; [4]) | Crabgrass plant response rating (crabgrass; [8])
5: Wild oats plant response rating (0 to 10 scale) (wild oat; [3]) | Wild oats plant response rating (wild oat; [4]) | Wild oats plant response rating (wild oat; [5]) | Ducksalad plant response rating (duck salad; [12]) | Blackgrass plant response rating (0 to 10 scale) (blackgrass; [3]) | Blackgrass plant response rating (blackgrass; [4]) | Plant response rating, Blackgrass (blackgrass; [7]) | Plant response rating, Giant foxtail (giant foxtail; [7]) | Soybean plant response rating (soybean; [8]) | B. signalgrass plant response rating (surinam grass; [5]) | B. signalgrass plant response rating (surinam grass; Rate 500 g/ha, Postemergence, scale of 0 to 10 where 0 is no effect and 10 is complete control)
0: Sugarbeets plant response rating (sugar beet; [2]) | Cocklebur plant response rating (cocklebur; [2]) | Cocklebur plant response rating (0 to 10 scale) (cocklebur; [3]) | Cocklebur plant response rating (cocklebur; [5]) | Wild oats plant response rating (wild oat; [1]) | Wild oats plant response rating (wild oat; [2]) | Wild oats plant response rating (wild oat; [6]) | Plant response rating, Wild oats (wild oat; [7]) | Wild oats plant response rating (wild oat; [8]) | Ducksalad plant response rating (duck salad; [9]) | Ducksalad plant response rating (duck salad; [10]) | Plant response rating, Ducksalad (duck salad; [11]) | Morningglory plant response rating (morningglory; [2]) | Morningglory plant response rating (0 to 10 scale) (morningglory; [3]) | Morningglory plant response rating (morningglory; [4]) | Morningglory plant response rating (morningglory; [5]) | Corn plant response rating (corn; [1]) | Corn plant response rating (corn; [2]) | Corn plant response rating (0 to 10 scale) (corn; [3]) | Corn plant response rating (corn; [4]) | Corn plant response rating (corn; [5]) | Corn plant response rating (corn; [6]) | Plant response rating, Corn (corn; [7]) | Corn plant response rating (corn; [8]) | Wheat plant response rating (wheat; [1]) | Wheat plant response rating (wheat; [2]) | Wheat plant response rating (0 to 10 scale) (wheat; [3]) | Wheat plant response rating (wheat; [4]) | Wheat plant response rating (wheat; [5]) | Wheat plant response rating (wheat; [6]) | Plant response rating, Wheat (wheat; [7]) | Wheat plant response rating (wheat; [8]) | Nutsedge plant response rating (purple nutsedge; [1]) | Nutsedge plant response rating (purple nutsedge; [2]) | Nutsedge plant response rating (0 to 10 scale) (purple nutsedge; [3]) | Nutsedge plant response rating (purple nutsedge; [4]) | Nutsedge plant response rating (purple nutsedge; [5]) | Nutsedge plant response rating (purple nutsedge; [6]) | Plant response rating, Nutsedge (purple nutsedge; [7]) | Nutsedge plant response rating (purple nutsedge; [8]) | Giant foxtail plant response rating (giant foxtail; [6]) | Velvetleaf plant response rating (velvetleaf; [2]) | Velvetleaf plant response rating (0 to 10 scale) (velvetleaf; [3]) | Velvetleaf plant response rating (velvetleaf; [4]) | Velvetleaf plant response rating (velvetleaf; [5]) | Soybean plant response rating (soybean; [2]) | Soybean plant response rating (0 to 10 scale) (soybean; [3]) | Soybean plant response rating (soybean; [4]) | B. signalgrass plant response rating (surinam grass; [1]) | B. signalgrass plant response rating (surinam grass; [2]) | B. signalgrass plant response rating (0 to 10 scale) (surinam grass; [3]) | B. signalgrass plant response rating (surinam grass; [6]) | Plant response rating, B. signalgrass (surinam grass; [7]) | S. Flatsedge plant response rating (smallflower flatsedge; [9]) | S. Flatsedge plant response rating (smallflower flatsedge; [10]) | Rape plant response rating (rape; [1]) | Rape plant response rating (rape; [2]) | Rape plant response rating (rape; [6]) | Plant response rating, Rape (rape; [7])

Reference: patent publication US6737383B1, “Herbicidal oxadiazolidines” (priority 1999, dated 2004)
